Laboratory results published in US11191735B2, “Arginine silicate for periodontal disease” (NUTRITION 21, LLC, priority 2015, dated 2021).
Read-outs that look alike come from different tables or passages of the source. Marks after values point to notes of the source that are not given here.

What was measured:
[1] = system: experimental periodontal disease (ligature model); conditions: for ICI Dense, animals / ICI Little visible, animals / ICI Slightly visible, animals: n=13
Protocol: (§1) All animals and surgical procedures were handled in accordance with guidelines of the Chancellor's Animal Research Committee of the Office for Protection of Research Subjects at the University of Inonu, Malatya, Turkey (2013/A-12). Fifty-two (2-month-old) female Sprague-Dawley rats weighing […] (Experimental Research Center of Inonu University) were kept in temperature-controlled cages (approximately 25° C.), exposed to a 24-hr light-dark cycle of equal time, and had free access to water and food ad libitum.
(§2) The fifty-two rats were randomly divided into four groups: the non-ligated treatment (Control) group (n=13), the ligature-only (L) group (n=13), the ligature plus ASI (“arginine-silicate-inositol;” Nutrition 21, NY, USA, see, e.g. U.S. Pat. Nos. 5,707,970 and 7,576,132) with dose of 1.81 mg/kg of diet group (designated “ASI I”), (n=13), the ligature plus ASI with dose of 3.62 mg/kg of diet group (designated “ASI II”) (n=13).
(§3) For all the studies described herein, the well-characterized ligature model of placing a sterile wire ligature around the crown of the right first maxillary molar was utilized. Rats were anesthetized with Rompun®, 10 mg/kg ve Xylazine®, 40 mg/kg ketamin, and a sterile 28-gauge wire ligature was placed around the cervical portion of the right first molar. Animals continued to receive basal diet or basal diet supplemented with 1.81 or 3.62 […] (Proctor et al., 2005) for 8 weeks before ligature placement.
A histologic evaluation was performed by a single examiner (I.O.) who was masked to the identity of the samples. The specimens were fixed in a 10% neutral-buffered formalin solution and demineralized in an aqueous 10% formic acid solution. The specimens were then dehydrated, embedded in paraffin, and sectioned along the molars in a mesiodistal plane for hematoxylin and eosin staining, as described by Toker et al. Light microscopy (Nikon, Tokyo, Japan), and assessment was performed on the two sections with a thickness of about […], corresponding to the buccal and lingual areas between the first and second molars where ligatures had been placed.
The areas of alveolar bone and interdental septum were analyzed under light microscopy, considering parameters including inflammatory cell infiltration (“ICI”) of the periodontal tissues, existing resorption lacunae (osteoclast surfaces), osteoblastic activity (forming surfaces) and the number of osteoclasts. […] Osteoclasts were counted based on their morphology.

[2] = system: experimental periodontal disease (ligature model); conditions: for ALP (serum) / CRP (serum) / Ca (serum) / P (serum): rats
Protocol: as §1, §2, §3
(§4) Animals were monitored weekly to ensure presence of the ligature, and the ligature was adjusted if necessary. At the end of the experiment, animals were euthanized, blood was collected via cardiac puncture, and serum biomarkers including Ca, Mg, phosphorus, alkaline phosphatase, and CRP (C-reactive protein) were measured. Whole maxillas were removed, placed in 10% formalin for 48 hours, and stored in 70% ethanol.

[3] = system: early to mild periodontitis
Text: The study group comprises ten systemically healthy subjects with early to mild periodontitis. […] Prior to any treatment procedure, oral hygiene instructions (OHI) are given. Each quadrant of the subjects is randomly assigned to one of the following groups: (A) scaling and root planning combined with daily administration of arginine silicate post-treatment, (B) scaling and root planning alone, (C) daily administration of arginine silicate alone, and (D) OHI alone.
Subjects are re-examined at one week, four weeks, eight weeks, and 12 weeks.

[4] = system: experimental periodontal disease (ligature model)
Protocol: as §1, §2, §3
Bones were imaged by micro-computed tomographic (μCT) scanning (SkyScan1172 Compact MKT (Kontich, Belgium)) at 16-μm resolution, and volumetric data were converted to DICOM format and imported in the Recon 1.6.9.4 SkyScan (Contich, Belgium) to generate 3D and multiplanar reconstructed images. An oral and maxillofacial radiologist (ST), blinded to the specific animal treatment, evaluated the μCT images of all animals to identify and score bony changes and performed all linear measurements using Recon software tools.
To quantify the amount of bone loss induced by experimental periodontal disease (PD), the imaged volume was oriented with the nasal cavity floor parallel to the horizontal plane and the midpalatal suture parallel to the midsagittal plane. Then the volume was angled such that the long axis of the distal root of the first molar (D1) and the mesial root of the second molar (M2) were vertical to the horizontal plane. Then the distance between the cementoenamel junction (CEJ) and the alveolar bone crest (ABC) was measured at the center of D1 and M2. To quantitatively assess changes in the width of the buccal alveolar outline on axial slices, the imaged volume was oriented such that the floor of the nasal cavity was parallel to the horizontal plane and the midpalatal suture was parallel to the midsagittal plane. Then the shortest distance from the buccal surface of the root to the buccal outline of the alveolar ridge was measured for the mesial and distal roots of the first and second molars at the level of the hard palate.

gingivitis = assay: Study in patients with gingivitis (Example 4); format: in vivo, human
Protocol: 20 patients with gingivitis (having at least three of the following symptoms: swollen gums, bright red or purple gum tissue, gum tissue that is sensitive to touch, bleeding gums, bad breath) are studied. Five patients are administered once-daily arginine silicate (I); five patients are topically administered once-daily arginine silicate to the oral cavity (II); five patients are administered chlorhexidine mouthwash for twice-daily use (III); and five patients are administered standard over-the-counter mouthwash for twice daily use (IV).
Patients are evaluated at four weeks, eight weeks, and twelve weeks. […] The trial is ceased at twelve weeks to avoid side effects from the chlorhexidine treatment.

[5] = system: IL-1β, MMP-8, RANK, RANKL, OPG, MPO expression levels from periodontal tissue; conditions: for IL-1β protein level / MMP-8 protein level / MPO protein level / OPG protein level / RANK protein level / RANKL protein level: control = 100
Text: FIG. 1B depicts western blot strips Il-1B, MMP-8, RANK, RANK-L, OPG and MPO expression levels from periodontal tissue.
as §1, §2, §3, §4

[6] = L + ASI I: ligature plus ASI, 1.81 mg/kg of diet
[7] = L + ASI II: ligature plus ASI, 3.62 mg/kg of diet

Substance: arginine silicate inositol [ASI]
- ICI (inflammatory cell infiltration) ([1]; ASI treatment (both doses)): significantly reduced
- ICI Dense, animals ([1]; L + ASI I: 1.81 mg/kg of diet): 4 (%30.8) n (%)
- ICI Little visible, animals ([1]; L + ASI I: 1.81 mg/kg of diet): 0 (%0) n (%)
- ICI Slightly visible, animals ([1]; L + ASI I: 1.81 mg/kg of diet): 9 (%69.2) n (%)
- ICI Dense, animals ([1]; L + ASI II: 3.62 mg/kg of diet): 2 (%15.4) n (%)
- ICI Little visible, animals ([1]; L + ASI II: 3.62 mg/kg of diet): 0 (%0)^ n (%)
- ICI Slightly visible, animals ([1]; L + ASI II: 3.62 mg/kg of diet): 11 (%84.6) n (%)
- serum calcium levels ([2]; ASI II group (3.62 mg/kg of diet)): significantly reduced
- serum CRP levels in comparison to the induced periodontitis group ([2]; ASI treatment groups (both doses)): significantly lower
- ALP (serum) [2, 6]: 440.31 ± 69.93 U/L
- CRP (serum) [2, 6]: 0.16 ± 0.07^b mg/dl
- Ca (serum) [2, 6]: 10.37 ± 0.32 mg/dL
- P (serum) [2, 6]: 8.35 ± 1.82 mg/dL
- ALP (serum) [2, 7]: 380.54 ± 85.36 U/L
- CRP (serum) [2, 7]: 0.18 ± 0.06^b mg/dl
- Ca (serum) [2, 7]: 9.78 ± 0.66^c mg/dl
- P (serum) [2, 7]: 7.82 ± 1.61 mg/dL
- improvement in periodontal symptoms ([3]; group (A): scaling and root planning combined with daily arginine silicate, eight and twelve weeks): significant improvement
- improvement in periodontal symptoms ([3]; group (A): scaling and root planning combined with daily arginine silicate, four weeks): significant improvement
- improvement in periodontal symptoms ([3]; group (C): daily arginine silicate alone, eight and twelve weeks): significant improvement
- improvement in periodontal symptoms ([3]; group (C): daily arginine silicate alone, four weeks): minimal improvement
- bone mineral density with respect to the controls and the ASI I group ([4]; ASI II (3.62 mg/kg of diet)): significantly increased
- BMD (bone mineral density) ([4]; L + ASI I: 1.81 mg/kg of diet): 0.78 ± 0.07 g/cm^2
- DCEJ-DCB/DCEJ-DRAP, rate of bone loss ([4]; L + ASI I: 1.81 mg/kg of diet): 0.41 ± 0.12 ^
- MCEJ-MCB/MCEJ-MRAP, rate of bone loss ([4]; L + ASI I: 1.81 mg/kg of diet): 0.49 ± 0.10 ^a,b
- RF-RFCB/RF-RFAP, rate of bone loss ([4]; L + ASI I: 1.81 mg/kg of diet): 0.21 ± 0.04 ^a,b
- BMD (bone mineral density) ([4]; L + ASI II: 3.62 mg/kg of diet): 0.85 ± 0.06 ^b g/cm^2
- DCEJ-DCB/DCEJ-DRAP, rate of bone loss ([4]; L + ASI II: 3.62 mg/kg of diet): 0.42 ± 0.08 ^
- MCEJ-MCB/MCEJ-MRAP, rate of bone loss ([4]; L + ASI II: 3.62 mg/kg of diet): 0.50 ± 0.10 ^a,b
- RF-RFCB/RF-RFAP, rate of bone loss ([4]; L + ASI II: 3.62 mg/kg of diet): 0.22 ± 0.05 ^a,b
- reduction in symptoms of gingivitis (gingivitis; group (I): administered once-daily, eight and twelve weeks): most significant reduction
- reduction in symptoms of gingivitis (gingivitis; group (I): administered once-daily, four weeks): significant reduction
- reduction in symptoms of gingivitis (gingivitis; group (II): topically administered once-daily to the oral cavity, eight and twelve weeks): most significant reduction
- reduction in symptoms of gingivitis (gingivitis; group (II): topically administered once-daily to the oral cavity, four weeks): significant reduction
- levels for IL-1β and MPO in the ASI II group in comparison to the ASI I group ([5]; 3.62 vs 1.81 mg/kg of diet): significantly lower
- levels for IL-1β, MMP-8, RANK, RANKL, OPG, MPO in comparison to the periodontitis group ([5]; ASI groups (both doses)): significantly lower
- IL-1β protein level ([5]; L + ASI I: 1.81 mg/kg of diet): 142.5 ± 2.53^a,b
- MMP-8 protein level ([5]; L + ASI I: 1.81 mg/kg of diet): 166.79 ± 7.86^a,b
- MPO protein level ([5]; L + ASI I: 1.81 mg/kg of diet): 180 ± 2.97^a,b
- OPG protein level ([5]; L + ASI I: 1.81 mg/kg of diet): 72.87 ± 4.67^a,b
- RANK protein level ([5]; L + ASI I: 1.81 mg/kg of diet): 189.27 ± 5.3^a,b
- RANKL protein level ([5]; L + ASI I: 1.81 mg/kg of diet): 150.11 ± 6.34^a,b
- IL-1β protein level ([5]; L + ASI II: 3.62 mg/kg of diet): 111.24 ± 2.35^a,b,c
- MMP-8 protein level ([5]; L + ASI II: 3.62 mg/kg of diet): 150.256 ± 11.6^a,b
- MPO protein level ([5]; L + ASI II: 3.62 mg/kg of diet): 159.59 ± 13.09^a,b,c
- OPG protein level ([5]; L + ASI II: 3.62 mg/kg of diet): 91.13 ± 3.04^a,b,c
- RANK protein level ([5]; L + ASI II: 3.62 mg/kg of diet): 174.31 ± 9.82^a,b
- RANKL protein level ([5]; L + ASI II: 3.62 mg/kg of diet): 138.35 ± 13.6^a,b
